The record followed here is ChEMBL document CHEMBL1126361, “A mechanism-based inactivator of E. coli -hydroxydecanoyl thiolester dehydrase designed to crosslink active site amino acids” (Bioorg Med Chem Lett, 1992).

This assay concerns Escherichia coli. Put plainly: Evaluation of Beta decanoyl thioester dehydrase inactivation for the compound was determined as percent enzyme activity remaining. Also on record: concentration or dose not given beside the values.

Consider `CCCCCC/C=C/CC(=O)C=[N+]=[N-]`, for which the Activity is 100%. `CCCCCCCCCC(=O)CCl` registered an Activity of 99%. In turn, `CCCCCCC#CCC(=O)C=[N+]=[N-]` had an Activity of 0%.

Regarding `CCCCCCC#CCC(=O)CCl`, the Activity was determined as 0%. Turning to `CCCCCCCCCC(=O)CBr`, the Activity worked out at 89%.

Regarding `CCCCCCCCCC(=O)C=[N+]=[N-]`, the Activity stood at 97%. `CCCCCCC=C=CC(=O)C=[N+]=[N-]` came in with an Activity of 0%.

`CCCCCC/C=C/CC(=O)CCl` returned an Activity of 100%.
